From patent US8946149B2, “Use of exendin and analogs thereof to delay or prevent cardiac remodeling” (Amylin Pharmaceuticals, LLC, priority 2005, dated 2015)

Assays:
cloned GLP-1 receptor = conditions: transfected cells; cited from earlier work
MI-induced rat model [1] = assay: Echocardiography and cardiac function (E/A ratio, LVEDP, cardiac output, +dp/dtmax, LV dimensions) in rats after myocardial infarction; format: in vivo, Sprague-Dawley rats
Procedure: (§1) Male Sprague-Dawley® rats (250-300 g) are anesthetized by using 5% isoflurane and a left thoracotomy was performed. The left main anterior descending artery (LAD) was ligated to induce myocardial infarction. In addition, sham animals (n=10) were subjected to the same surgical procedure without ligation of the LAD.
(§2) After two weeks, rats were treated with 2.5 pmol/kg/min GLP-1 (n=11) (GLPL), 25 pmol/kg/min GLP-1 (n=12) (GLPH), 1.67 pmol/kg/min an exendin agonist, AC3174, (n=12) (AC3174L), 5 pmol/kg/min exendin agonist (n=7) (AC3174H), or vehicle (n=14) via subcutaneous infusion for 11 weeks. Echocardiography was performed at the 3rd, 5th, 9th, and 13th week of myocardial infarction. Left ventricular (LV) end systolic dimension (ESD) and diastolic dimension (EDD), LV systolic volume and diastolic volume, left atrial volume were recorded. At the 13th week of MI, the hearts were excised, the LV mass were weighed and LV mass/body weight ratio was determined.

MI-induced rat model [2] = assay: Whole body composition, heart, lung weight and infarct size in rats with CHF after LAD ligation; format: in vivo, Sprague-Dawley rats; conditions: for B.W / Fat mass / Fluid mass / Infarct size / LV weight / LV weight/B.W. / Lean mass / Lung weight / Lung weight/B.W. / RV weight / RV weight/B.W.: 13th week of MI, mean ± SEM
Procedure: as §1, §2

MI-induced rat model [3] = assay: Treadmill test, plasma lactate and insulin sensitivity in rats after myocardial infarction; format: in vivo, Sprague-Dawley rats
[4] = GLPH: GLP-1 25 pmol/kg/min s.c. infusion 11 weeks
[5] = GLPL: GLP-1 2.5 pmol/kg/min s.c. infusion 11 weeks

For “exendin[9-39]: truncated exendin peptide, a carboxyamidated molecule, antagonist of GLP-1”, the “action at the cloned GLP-1 receptor (cAMP)” value (cloned GLP-1 receptor) is listed as “antagonist”.

For GLP-1 (7-36) amide, the “effect on the increase of E/A ratio during CHF progression” value (MI-induced rat model [1]; at each dose, s.c. infusion 11 weeks, 13 weeks after MI, vs control (+116% vs sham)) was “prevented increases”, the “effect on enlargement of LV chamber” value (MI-induced rat model [1]; chronic treatment) was “slowed” and the “effect on cardiac output” value (MI-induced rat model [1]; s.c. infusion 11 weeks, control reduced by 19% vs sham) was “normalized”. The “effect on contractility (+dp/dtmax)” value (MI-induced rat model [1]; s.c. infusion 11 weeks, control reduced by 24% vs sham) was “normalized”, the “effect on remodeling (LV mass, LV end diastolic dimension and systolic dimension increase)” value (MI-induced rat model [1]; s.c. infusion 11 weeks, progression of CHF) was “significantly reduced” and the “effect on LV end diastolic pressure (LVEDP) elevation” value (MI-induced rat model [1]; s.c. infusion 11 weeks, vehicle group +97% vs sham) was “eliminated”. The “reduction of infarct size compared to the control group” value (MI-induced rat model [2]; 25 pmol/kg/min s.c. infusion, p<0.05) was 30%, the B.W (MI-induced rat model [2]; [4]) was 518 ± 12 g and the Fat mass (MI-induced rat model [2]; [4]) was 51 ± 9 g. The Fluid mass (MI-induced rat model [2]; [4]) was 331 ± 15 g, the Infarct size (MI-induced rat model [2]; [4]) was 29 ± 2% and the LV weight (MI-induced rat model [2]; [4]) was 1.13 ± 0.03 g. The “LV weight/B.W.” value (MI-induced rat model [2]; [4]) was 0.22 ± 0.01 %, the Lean mass (MI-induced rat model [2]; [4]) was 35 ± 2 g and the Lung weight (MI-induced rat model [2]; [4]) was 1.66 ± 0.13 g. The “Lung weight/B.W.” value (MI-induced rat model [2]; [4]) was 0.32 ± 0.02 %, the RV weight (MI-induced rat model [2]; [4]) was 0.23 ± 0.01 g and the “RV weight/B.W.” value (MI-induced rat model [2]; [4]) was 0.04 ± 0.00 %. The B.W (MI-induced rat model [2]; [5]) was 523 ± 14 g, the Fat mass (MI-induced rat model [2]; [5]) was 45 ± 6 g and the Fluid mass (MI-induced rat model [2]; [5]) was 332 ± 11 g. For the same substance, the Infarct size (MI-induced rat model [2]; [5]) was 30 ± 2%, the LV weight (MI-induced rat model [2]; [5]) was 1.26 ± 0.05 g and the “LV weight/B.W.” value (MI-induced rat model [2]; [5]) was 0.24 ± 0.01%. For the same substance, the Lean mass (MI-induced rat model [2]; [5]) was 37 ± 2 g, the Lung weight (MI-induced rat model [2]; [5]) was 1.94 ± 0.35 g and the “Lung weight/B.W.” value (MI-induced rat model [2]; [5]) was 0.37 ± 0.07%. The RV weight (MI-induced rat model [2]; [5]) was 0.22 ± 0.01 g, the “RV weight/B.W.” value (MI-induced rat model [2]; [5]) was 0.04 ± 0.00 % and the “effect on LV weight (summary)” value (MI-induced rat model [2]; chronic treatment) was “attenuated”. The “effect on infarction size (summary)” value (MI-induced rat model [2]; chronic treatment) was “reduced”, the “effect on exercise capacity (EC)” value (MI-induced rat model [3]; at each dose, treadmill test) was “significantly improved” and the “effect on exercise efficiency (EC/VO2)” value (MI-induced rat model [3]; at each dose, treadmill test) was “significantly improved”. The “effect on baseline plasma lactate” value (MI-induced rat model [3]; chronic treatment) was “attenuated”, the “effect on exercise capacity/peak lactate ratio” value (MI-induced rat model [3]; chronic treatment) was “improved” and the “effect on insulin sensitivity” value (MI-induced rat model [3]; chronic treatment) was “improved”.
